Columns and labels:
[1] = Vapor pressure at 30° C. on the cox diagram; format: physicochemical
Protocol: Compounds which are hard to vaporize at normal temperature can be used in the present invention as a pesticidal component. Those having a vapor pressure […] than 1×10^−7 mmHg at 30° C. and a boiling point of not lower than 120° C./1 mmHg are preferred. It should be noted that the range of vapor pressure as referred to herein is the range at 30° C. on the vapor pressure vs. temperature plot in the cox diagram hereinafter described.
The results of our study have made it possible to suppose or know the vapor pressure at a target temperature by utilizing the cox diagram only if at least one found value is available. The aforesaid problem can thus be solved.
The cox diagram as used herein is the straight line or a group of the straight lines obtained by plotting log P as ordinate and t/(t+C) as abscissa on a graph.

[2] = tested on: Northern house mosquito (female adult); test: Insecticidal test in acrylic resin cylinder, air blown through impregnated honeycomb carrier (Example 1); format: in vivo; details: 500 mg preparation; for number of knockdowns: 26 to 30° C.
Source text: Testing apparatus 1 shown in FIG. 1 comprising acrylic resin cylinder 4 was used. Twenty of northern house mosquitos (female adult) were put in the space partitioned with insect nets 2, and blower 3 was set at the bottom of testing apparatus 1. Preparation-retaining material 5 comprising a honeycomb carrier impregnated with a preparation was fitted in at the lower part of cylinder 4 and above blower 3. Air was blown from the bottom of cylinder 4 and passed through the preparation-retaining material 5 to release the pesticidal component from the preparation, and the insecticidal effect was examined using apparatus 1 for insect control of the present invention.
The number of knockdowns of the mosquitos was counted for every 30 seconds during 10 minutes and 30 seconds following the start of the testing. The mosquitos knocked down were transferred to a clean plastic cup (volume: about 500 ml) containing a cotton wad impregnated with a 1% aqueous sugar solution as feed, and the cup was covered and maintained under constant temperature conditions of about 25° C. […]
The preparation-retaining material used herein was prepared as follows. A honeycomb structure (70×70×15 mm) comprising a laminate of corrugated boards (single-sided) made of bleached kraft paper having a basis weight of 80 g/m^2 (height of the corrugation: about 2 mm) was uniformly impregnated with 3 ml of an acetone solution containing about 500 mg of preparation. The impregnated carrier was set in the apparatus after acetone vaporized.

[3] = Vapor pressure measurement of pyrethroid compounds with the vapor pressure measuring apparatus
[4] = tested on: sensitive German cockroaches (Blatella germanica); test: Cockroach knockdown and mortality in 24 m^3 test room (Example 3); format: in vivo; details: 1.0 g pesticidal component
Protocol: (§1) The insect pest control apparatus of the present invention was put at the center of the floor of the room, and two cups each containing 20 cockroaches were placed at each of the two opposite corners of the floor. The pesticidal component shown in Table 5 below was released from the apparatus for consecutive 24 hours. As test insects, sensitive German cockroaches (Blatella germanica) and sensitive smokybrown cockroaches (Periplaneta fuliginosa) were used.
(§2) The preparation-retaining material used was prepared by impregnating a honeycomb carrier (70×70×15 mm; FIG. 3) with 1.0 g of the pesticidal component.

[5] = tested on: sensitive smokybrown cockroaches (Periplaneta fuliginosa); test: as above; format: in vivo; details: 1.0 g pesticidal component
Protocol: as §1, §2

Structure (SMILES) | Vapor Pressure at 30° C. [1] | number of knockdowns ([2]; 0.5 min) | number of knockdowns ([2]; 1.0 min) | number of knockdowns ([2]; 1.5 min) | number of knockdowns ([2]; 2.0 min) | number of knockdowns ([2]; 2.5 min) | number of knockdowns ([2]; 3.0 min) | number of knockdowns ([2]; 3.5 min) | Mortality (%) ([2]; 24 hrs.) | Mortality (%) ([2]; 48 hrs.) | Vapor Pressure ([3]; 20° C.) | Vapor Pressure ([3]; 25° C.) | Vapor Pressure ([3]; 30° C.) | Vapor Pressure ([3]; 35° C.) | Vapor Pressure ([3]; 40° C.) | further results
C#CCc1ccc(COC(=O)C2C(C=C(C)C)C2(C)C)o1 (mixture of isomers) [furamethrin, 5-propargyl-2-furylmethyl d-cis/trans-chrysanthemate] | 4.5 × 10^−4 mmHg | 0 | 0 | 0 | 1 | 3 | 8 | 18 | 100 | 100 | 1.3 × 10^−4 mmHg | 2.2 × 10^−4 mmHg | 4.5 × 10^−4 mmHg | 7.1 × 10^−4 mmHg | 1.4 × 10^−3 mmHg | number of knockdowns ([2]; 4.0 min): 19
CC1(C)C(C=C(Cl)Cl)C1C(=O)OCc1cccc(Oc2ccccc2)c1 (mixture of isomers) [permethrin, 3-phenoxybenzyl-dl-cis/trans-3-(2,2-dichlorovinyl)-2,2-dimethyl-1-cyclopropanecarboxylate] | – | – | – | – | – | – | – | – | – | – | 5.5 × 10^−7 mmHg | 1.1 × 10^−6 mmHg | 1.9 × 10^−6 mmHg | 3.6 × 10^−6 mmHg | 6.3 × 10^−6 mmHg | –
CC(C)=CC1C(C(=O)OCc2cccc(Oc3ccccc3)c2)C1(C)C (mixture of isomers) [phenothrin, 3-phenoxybenzyl-d-cis/trans-chrysanthemate] | – | – | – | – | – | – | – | – | – | – | 1.2 × 10^−6 mmHg | 2.2 × 10^−6 mmHg | 4.3 × 10^−6 mmHg | 7.7 × 10^−6 mmHg | 1.4 × 10^−5 mmHg | –
CC(C)=CC1C(C(=O)OCN2C(=O)C3=C(CCCC3)C2=O)C1(C)C (mixture of isomers) [phthalthrin, (1,3,4,5,6,7-hexahydro-1,3-dioxo-2-isoindolyl)methyl dl-cis/trans-chrysanthemate] | – | – | – | – | – | – | – | – | – | – | 3.5 × 10^−8 mmHg | 6.6 × 10^−8 mmHg | 1.2 × 10^−7 mmHg | 2.2 × 10^−7 mmHg | 3.8 × 10^−7 mmHg | –
C#CCC1=C(C)C(OC(=O)C2C(C=C(C)C)C2(C)C)CC1=O (mixture of isomers) [prallethrin, (+)-2-methyl-4-oxo-3-(2-propynyl)-2-cyclopentenyl (+)-cis/trans-chrysanthemate] | 1.3 × 10^−4 mmHg | 0 | 0 | 1 | 10 | 15 | 21 | 22 | 86 | 100 | 3.5 × 10^−5 mmHg | 6.9 × 10^−5 mmHg | 1.3 × 10^−4 mmHg | 2.4 × 10^−4 mmHg | 4.4 × 10^−4 mmHg | –
CC(C)=CC1C(C(=O)OC(C#N)c2cccc(Oc3ccccc3)c2)C1(C)C (racemic) [cyphenothrin, (±) αa-cyano-3-phenoxybenzyl(+)-cis/trans-chrysanthemate] | – | – | – | – | – | – | – | – | – | – | 9.2 × 10^−7 mmHg | 1.9 × 10^−6 mmHg | 3.6 × 10^−6 mmHg | 6.6 × 10^−6 mmHg | 1.3 × 10^−5 mmHg | –
CC1(C)C(C=C(Cl)Cl)C1C(=O)OCc1c(F)c(F)cc(F)c1F (stereo not drawn) [benfluthrin, d-trans-2,3,5,6-tetrafluorobenzyl-3-(2,2-dichlorovinyl)-2,2-dimethyl-1-cyclopropanecarboxylate] | – | – | – | – | – | – | – | – | – | – | 8.3 × 10^−5 mmHg | 1.5 × 10^−4 mmHg | 2.7 × 10^−4 mmHg | 4.0 × 10^−4 mmHg | 8.5 × 10^−4 mmHg | Knockdown Ratio (%) ([4]; 1 hr): 0%; Knockdown Ratio (%) ([4]; 2 hrs): 0%; Knockdown Ratio (%) ([4]; 4 hrs): 0%; Knockdown Ratio (%) ([4]; 24 hrs): 87.5%; Mortality at 48 hrs (%) ([4]; 48 hrs): 97.5%; Knockdown Ratio (%) ([5]; 1 hr): 0%; Knockdown Ratio (%) ([5]; 2 hrs): 0%; Knockdown Ratio (%) ([5]; 4 hrs): 5.0%; Knockdown Ratio (%) ([5]; 24 hrs): 6.3%; Mortality at 48 hrs (%) ([5]; 48 hrs): 7.5%
C=CCC1=C(C)C(OC(=O)C2C(C=C(C)C)C2(C)C)CC1=O (stereo not drawn) [esbiol, d-3-allyl-2-methyl-4-oxo-2-cyclopentenyl d-trans-chrysanthemate] | 1.2 × 10^−4 mmHg | 0 | 0 | 1 | 3 | 10 | 17 | 19 | 70 | 78 | – | – | – | – | – | number of knockdowns ([2]; 4.0 min): 22
CC(C)=CC1C(C(=O)OCN2C(=O)C3=C(CCCC3)C2=O)C1(C)C (stereo not shown) [tetramethrin] | – | – | – | – | – | – | – | – | – | – | 2.4 × 10^−6 mmHg | 4.4 × 10^−6 mmHg | 8.5 × 10^−6 mmHg | 1.7 × 10^−5 mmHg | 3.2 × 10^−5 mmHg | –
